Measurements as given in patent US8017629B2, “Compounds and uses thereof in modulating amyloid β” (Neurogenetic Pharmaceuticals, Inc., priority 2003, dated 2011).

What follows are molecules tested on Aβ42 levels in the extracellular medium (assay: FRET (HTRF) assay, Aβ42 level of the extracellular medium of SH-SY5Y-APP cells). Settings: Homo sapiens, concentration at which reduction of Aβ42 level was half of the maximum reduction, read-out: Ab42 Potency.
Type: cell-based
Procedure: Compounds were evaluated for activity in modulating Aβ42 and Aβ40 levels in the extracellular medium using a homogeneous time-resolved fluorescence (HTRF) assay as follows.
For the HTRF assay, either 5 or 10 μl of supernatant from treated cells was added to 10 or 15 μl of labeled antibody pairs, for a total volume of 20 μl, and incubated for 20-24 hours at 4° C. The labeled antibody pairs were either 8000 pg B436-XL665 and 400 pg B113 Europium, for assessing Aβ40 levels, or 8000 pg B436-XL665 and 400 pg A387 Europium, for assessing Aβ42 levels, diluted in 50 mM NaPO4, 0.2% BSA, 0.5M KF, pH 7. The fluorescence was read on a BMG Rubystar at 620 nm and 665 nm.

Row | SMILES | EC50 [µM]
1 | Cc1cn(-c2ccc(-c3nc(Nc4cc(Cl)c(Cl)cc4Cl)sc3C)cc2)cn1 [Compound 245] | 1.1 to 5
2 | COc1cc(C)c(Nc2nc(-c3ccc(-n4cnc(C)c4)cc3)cs2)cc1OC [Compound 267] | 1.1 to 5
3 | CCCCN(CC)c1ccc(C)c(Nc2nc(-c3ccc(-n4cnc(C)c4)nc3)cs2)c1 [Compound 317] | 0.2 to 1
4 | CCN(CCO)c1ccc(Nc2nc(-c3ccc(-n4ccnc4)cc3)cs2)c(C)c1 [Compound 203] | 1.1 to 5
5 | COc1cc(C)c(Nc2nc(-c3ccc(-n4ccnc4)cc3)cs2)cc1C(C)C [Compound 294] | < 0.2
6 | CCN(CC)c1ccc(Nc2nc(-c3ccc(-n4cc(C)nc4C)cc3)cs2)c(C)c1 [Compound 249] | 1.1 to 5
7 | COc1ccc(Nc2nc(-c3ccc(N4CCN(C)CC4)cc3)cs2)cc1 [Compound 137] | 1.1 to 5
8 | CCN(CC)c1ccc(C)c(Nc2nc(-c3ccc(-n4cnc(C)c4)nc3)cs2)c1 [Compound 270] | < 0.2
9 | CN1CCN(c2ccc(-c3csc(Nc4ccc5[nH]ncc5c4)n3)cc2)CC1 [Compound 141] | 1.1 to 5
10 | Cc1cn(-c2ccc(-c3csc(Nc4cc(C)c(C)cc4C)n3)cn2)cn1 [Compound 262] | 0.2 to 1
11 | Cc1cn(-c2ccc(-c3nc(Nc4cc(-n5cccc5)ccc4C)sc3C)cc2)cn1 [Compound 278] | 0.2 to 1
12 | CNCCN(C)c1ccc(C)c(Nc2nc(-c3ccc(-n4ccnc4)cc3)cs2)c1 [Compound 258] | 1.1 to 5
13 | CCN(CC)c1ccc(C)c(Nc2nc(-c3cnc(-n4cnc(C)c4)nc3)cs2)c1 [Compound 341] | < 0.2
14 | Cc1cn(-c2ccc(-c3nc(Nc4cc(C)c(C)cc4C)sc3C)cc2)cn1 [Compound 242] | 0.2 to 1
15 | CCCN(c1ccc(Cl)c(Cl)c1)c1nc(-c2ccc(-n3ccnc3)cc2)cs1 [Compound 174] | 10.1 to 30
16 | CCN(CC1CC1)c1cc(Nc2nc(-c3ccc(-n4cnc(C)c4)cc3)cs2)c(C)cc1C [Compound 350] | < 0.2
17 | COc1cc(Nc2nc(-c3ccc(N4CCN(C)CC4)cc3)cs2)cc(OC)c1OC [Compound 116] | 1.1 to 5

Row | SMILES | EC50 [µM]
18 | COc1ccc(Nc2nc(-c3ccc4c(c3)CCC(=O)N4)cs2)c(OC)c1 [Compound 120] | 10.1 to 30
19 | FC(F)(F)c1cc(NC2CCCC2)ccc1Nc1nc(-c2ccc(-n3ccnc3)cc2)cs1 [Compound 220] | 10.1 to 30
20 | FC(F)(F)c1cc(NCCN2CCCC2)ccc1Nc1nc(-c2ccc(-n3ccnc3)cc2)cs1 [Compound 222] | 1.1 to 5
21 | Cc1cn(-c2ccc(-c3csc(Nc4ccc(N5CCOCC5)c(Cl)c4)n3)c(C(F)(F)F)c2)cn1 [Compound 229] | 5.1 to 10
22 | Cc1ccc(CO)cc1Nc1nc(-c2ccc(-n3ccnc3)cc2)cs1 [Compound 298] | 0.2 to 1
23 | CSc1cccc(Nc2nc(-c3ccc4c(c3)OCCO4)cs2)c1 [Compound 167] | 5.1 to 10
24 | CCc1ccc(C)nc1Nc1ccc(Nc2nc(-c3ccc(-n4ccnc4)cc3)cs2)c(C)c1 [Compound 209] | 5.1 to 10
25 | COc1cc(Nc2nc(-c3ccc(O)c(O)c3)cs2)cc(OC)c1OC [Compound 112] | 10.1 to 30
26 | N#Cc1ccc(-c2csc(Nc3cc(Cl)cc(Cl)c3)n2)cc1 [Compound 211] | 10.1 to 30
27 | CCN(CC)c1cc(C)c(Nc2nc(-c3ccc(-n4cnc(C)c4)cc3)cs2)cc1C [Compound 285] | < 0.2
28 | CCc1ccc(Nc2nc(-c3ccc(N4CCN(C)CC4)cc3)cs2)cc1 [Compound 132] | 10.1 to 30
29 | CCN(CC)c1ccc(Nc2nc(-c3ccc(-n4cnc(C)c4)cc3C(F)(F)F)c(C)s2)c(C)c1 [Compound 205] | 1.1 to 5
30 | CCN(CCO)c1ccc(Nc2nc(-c3ccc(-n4cnc5ccccc54)cc3)cs2)c(C)c1 [Compound 228] | 5.1 to 10
31 | Cc1cn(-c2ccc(-c3csc(Nc4cc(C)c(C)cc4C)n3)cc2)cn1 [Compound 235] | 0.2 to 1
32 | CCN(CC)c1ccc(C)c(Nc2nc(-c3ccc(-n4cnc(C)c4)cc3)cs2)c1 [Compound 268] | < 0.2
33 | CN1CCN(c2ccc(-c3csc(Nc4ccc5c(c4)OCO5)n3)cc2)CC1 [Compound 115] | 1.1 to 5
